Assay results from patent publication US9562043B2 (EA Pharma Co., Ltd., priority 2012, dated 2017).

Target: T1, human TRPA1 (Homo sapiens, UniProt O75762)
T1 construct: host or cells: human embryonic kidney-derived 293T cells, transient transfection with pcDNA3.1/zeo(+) plasmid
Test: Measurement of TRPA1 antagonist activity (intracellular calcium increase, FLIPR)
Assay type: cell-based
Details: 293T cells transfected with human TRPA1 expression plasmid, allylisothiocyanate 20 μM stimulation, calcium fluorescence, read-out: antagonism hTRPA1
From the text: Measurement of TRPA1 Antagonist Activity
Human TRPA1 Expression Plasmid
As cDNA encoding human TRPA1 (GenBank accession No. […]), a commercially available product was purchased (manufactured by Kazusa DNA Research Institute, clone No.: pFN21AB7348, item No.: FHC07217). Using this as a template, full-length human TRPA1 gene was amplified using the primer sequences shown below, by reaction using DNA polymerase (manufactured by Stratagene, trade name: PfuUltra High-Fidelity DNA Polymerase).
A recognition site (underlined) of restriction enzyme HindIII was added to the 5′ side, and XbaI site (underlined) was added to the 3′ side, and GTT of the template sequence was changed to termination codon TAG (bold). The obtained double stranded DNA was enzyme-digested with HindIII and XbaI, and introduced into a multicloning site of expression plasmid pcDNA3.1/zeo(+) (manufactured by Invitrogen) to give a human TRPA1 expression plasmid.
Human embryonic kidney-derived 293T cells were cultured in Dulbecco's Modified Eagle Medium containing 10% fetal bovine serum, 10 unit penicillin, and 10 μg streptomycin, plated on a petri dish having a diameter of 10 cm at 3×10^6 cells, and cultured for 24 hr. A medium containing a reduced amount of serum (manufactured by Invitrogen, trade name: OPTI-MEM, 600 μL), a gene insertion reagent (manufactured by Mirus Bio, trade name: Mirus TransIT-293, 18 μL), and human TRPA1 expression plasmid (6 μg) were mixed, the total amount of the mixture was added to the cells on the petri dish to allow for gene transfer. The cells were recovered about 8 hr later, plated on a poly-D-lysine coated 384 well black/clear bottom plate at 7,500-12,000 cells/well, and cultured overnight.
Measurement of Intracellular Calcium Increase
The 384 well plate was recovered, and the medium was removed. A calcium-bonded fluorescent indicator (manufactured by Molecular Device, trade name: Calcium4 Assay Kit, 40 μL) dissolved in assay buffer (1×HBSS, 20 mM HEPES, pH 7.2) was added, and the cells were stained in a 37° C. incubator for 1 hr. The cells were taken out at room temperature and left standing for 15 min or more. A test substance (10 μL) was added by a 384 well type dispenser, and the mixture was incubated at room temperature for 10 min. Then, allylisothiocyanate (12.5 μL) at a final concentration of 20 μM was added by a fluorescence imaging plate reader (manufactured by Molecular Device, FLIPR), and changes in the relative fluorescence intensity were measured for 5 min.
Test Substance Preparation
The test substance was dissolved in dimethyl sulfoxide and serially diluted with an assay buffer containing 0.1% bovine serum albumin (1×HBSS, 20 mM HEPES, pH 7.2) to a 5-fold concentration of the evaluation concentration. Allylisothiocyanate, which is a known TRPA1 activator, was dissolved in dimethyl sulfoxide to 100 mM, and further diluted 5-fold (100 μM) of the final concentration, like the test substance.
Calculation of Antagonist Activity
Under the test substance-free conditions, the maximum variation range of the fluorescence intensity before and after allylisothiocyanate stimulation was defined to be 100% activity rate, and the variation range before and after buffer stimulation was defined as 0% activity rate. The activity rate on addition of the test substance was determined, and the numerical value obtained by subtracting the activity rate from 100 was defined to be an inhibitory rate. IC50, which is the concentration of the test substance necessary for reaching the 50% inhibitory rate, was calculated from the sigmoid approximate curve by a spreadsheet software Excel-Fit.

T1 sequence (O75762 whole entry): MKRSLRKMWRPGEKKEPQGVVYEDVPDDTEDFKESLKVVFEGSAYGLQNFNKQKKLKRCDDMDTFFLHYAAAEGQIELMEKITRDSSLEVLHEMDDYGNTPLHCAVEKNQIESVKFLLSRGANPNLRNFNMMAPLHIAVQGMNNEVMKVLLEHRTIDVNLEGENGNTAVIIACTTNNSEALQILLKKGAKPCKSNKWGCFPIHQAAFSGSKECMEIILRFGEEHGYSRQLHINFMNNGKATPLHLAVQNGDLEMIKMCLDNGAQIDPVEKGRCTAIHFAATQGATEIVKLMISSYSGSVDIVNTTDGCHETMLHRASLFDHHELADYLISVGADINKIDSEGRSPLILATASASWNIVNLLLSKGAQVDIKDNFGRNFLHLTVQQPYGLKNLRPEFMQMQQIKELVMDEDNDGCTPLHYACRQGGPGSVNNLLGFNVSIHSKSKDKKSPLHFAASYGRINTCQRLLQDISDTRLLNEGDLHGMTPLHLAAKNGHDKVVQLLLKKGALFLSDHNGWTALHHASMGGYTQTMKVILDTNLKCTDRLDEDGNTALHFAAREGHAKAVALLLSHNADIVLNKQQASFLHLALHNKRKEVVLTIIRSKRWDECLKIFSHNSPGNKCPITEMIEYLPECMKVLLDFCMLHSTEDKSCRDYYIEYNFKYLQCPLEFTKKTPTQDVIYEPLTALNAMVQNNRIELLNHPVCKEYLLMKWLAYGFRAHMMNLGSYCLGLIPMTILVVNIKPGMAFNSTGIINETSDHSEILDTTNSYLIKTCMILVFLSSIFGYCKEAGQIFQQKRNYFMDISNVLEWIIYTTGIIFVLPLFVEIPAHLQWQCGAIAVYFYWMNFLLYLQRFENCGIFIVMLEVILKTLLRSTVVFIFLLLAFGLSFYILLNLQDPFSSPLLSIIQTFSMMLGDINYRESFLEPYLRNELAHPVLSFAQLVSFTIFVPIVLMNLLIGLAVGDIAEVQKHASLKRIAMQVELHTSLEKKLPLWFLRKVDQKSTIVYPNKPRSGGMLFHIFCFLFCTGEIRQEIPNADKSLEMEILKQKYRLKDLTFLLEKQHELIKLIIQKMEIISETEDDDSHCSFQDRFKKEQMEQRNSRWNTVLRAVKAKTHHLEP

Row | SMILES | IC50 [nM]
1 | O=C(NCc1csc(-c2ccc(C(F)(F)F)cc2)n1)[C@@H]1C=CCN1S(=O)(=O)c1ccc(Cl)s1 [compound 26, (2S)-1-(5-chlorothiophene-2-sulfonyl)-N-({2-[4-(trifluoromethyl)phenyl]-thiazol-4-yl}methyl)-3,4-didehydropyrrolidine-2-carboxamide] | 180
2 | O=C(NCc1nc(-c2ccc(C(F)(F)F)cc2)cs1)[C@@H]1CC(F)(F)CN1S(=O)(=O)c1ccc(Cl)s1 [compound 27, (2S)-1-(5-chlorothiophene-2-sulfonyl)-N-({4-[4-(trifluoromethyl)phenyl]-thiazol-2-yl}methyl)-4,4-difluoropyrrolidine-2-carboxamide] | 960
3 | O=C(NCc1nc(-c2ccc(C(F)(F)F)cc2)cs1)[C@@H]1C[C@@H](O)CN1S(=O)(=O)c1ccc(Cl)s1 [compound 28, (2S,4R)-1-(5-chlorothiophene-2-sulfonyl)-N-({4-[4-(trifluoromethyl)phenyl]-thiazol-2-yl}methyl)-hydroxypyrrolidine-2-carboxamide] | 2690
4 | O=C(NCc1nc(-c2ccc(C(F)(F)F)cc2)cs1)[C@@H]1CSCN1S(=O)(=O)c1ccc(Cl)s1 [compound 29, (4R)-3-(5-chlorothiophene-2-sulfonyl)-N-({4-[4-(trifluoromethyl)phenyl]-thiazol-2-yl}methyl)-1,3-thiazolidine-4-carboxamide] | 580
5 | CC1(C)SCN(S(=O)(=O)c2ccc(Cl)s2)[C@@H]1C(=O)NCc1nc(-c2ccc(C(F)(F)F)cc2)cs1 [compound 30, (4R)-3-(5-chlorothiophene-2 sulfonyl)-N-({4-[4-(trifluoromethyl)phenyl]-thiazol-2-yl}methyl)-5,5-dimethyl-1,3-thiazolidine-4 carboxamide] | 520
6 | O=C(NCc1nc(-c2ccc(OC(F)(F)F)cc2)cs1)[C@@H]1CCN1S(=O)(=O)c1ccc(Cl)s1 [compound 32, (2S)-1-[5-chlorothiophene-2-sulfonyl)-N-({4-[4-(trifluoromethoxy)phenyl]-thiazol-2-yl}methyl)azetidine-2-carboxamide] | 2790
7 | C[C@@]1(C(=O)NCc2nc(-c3ccc(C(F)(F)F)cc3)cs2)CCCN1S(=O)(=O)c1ccc(Cl)s1 [compound 33, (2S)-1-(5-chlorothiophene-2-sulfonyl)-N-({4-[4-(trifluoromethyl)phenyl]-thiazol-2-yl}methyl)-2-methylpyrrolidine-2-carboxamide] | 740
8 | C[C@@]1(C(=O)NCc2nc(-c3ccc(OC(F)(F)F)cc3)cs2)CCCN1S(=O)(=O)c1ccc(Cl)s1 [compound 34, (2S)-1-(5-chlorothiophene-2-sulfonyl)-N-({4-[4-(trifluoromethoxy)phenyl]-thiazol-2-yl}methyl)-2-methylpyrrolidine-2-carboxamide] | 890
9 | C[C@H](NC(=O)[C@]1(C)CCCN1S(=O)(=O)c1ccc(Cl)s1)c1nc(-c2ccc(OC(F)(F)F)cc2)cs1 [compound 35, (2S)-1-(5-chlorothiophene-2-sulfonyl)-N-[(1S)-1-{4-[4-(trifluoromethoxy)phenyl]-thiazol-2-yl}ethyl]-2-methylpyrrolidine-2-carboxamide] | 2500
10 | O=C(NCc1ccc(-c2ccc(OC(F)(F)F)cc2)s1)[C@@H]1CCCN1S(=O)(=O)c1ccc(Cl)s1 [compound 44, (2S)-1-(5-chlorothiophene-2-sulfonyl)-N-({5-[4-(trifluoro-methoxy)phenyl]-2-thienyl}methyl)pyrrolidine-2-carboxamide] | 120
11 | Cc1sc(-c2ccc(C(F)(F)F)cc2)nc1CNC(=O)[C@@H]1CCCN1S(=O)(=O)c1ccc(Cl)s1 [compound 45, (2S)-1-(5-chlorothiophene-2-sulfonyl)-N-({5-methyl-2-[4-(trifluoromethyl)phenyl]-thiazol-4-yl}methyl)-pyrrolidine-2-carboxamide] | 110
12 | O=C(NCc1nc(-c2ccc(C(F)(F)F)cc2)cs1)[C@@H]1CCCN1S(=O)(=O)c1ccccc1 [compound 47, (2S)-1-(benzenesulfonyl)-N-({4-[4-(trifluoromethyl)-phenyl]thiazol-2-yl}methyl)-pyrrolidine-2-carboxamide] | 810

Other lines, results leading:

Row | IC50 [nM] | SMILES
13 | 750 | O=C(NCc1nc(-c2ccc(C(F)(F)F)cc2)cs1)[C@@H]1CCN1S(=O)(=O)c1ccc(Cl)s1 [compound 31, (2S)-1-(5-chlorothiophene-2-sulfonyl)-N-({4-[4-(trifluoromethyl)phenyl]-thiazol-2-yl}methyl)azetidine-2-carboxamide]
14 | 1790 | O=C(NCc1nc(-c2ccc(C(F)(F)F)cc2)cs1)[C@@H]1CCCN1S(=O)(=O)c1cccs1 [compound 36, (2S)-1-(thiophene-2-sulfonyl)-N-({4-[4-(trifluoromethyl)-phenyl]thiazol-2-yl}methyl)pyrrolidine-2-carboxamide]
15 | 1000 | O=C(NCc1nc(-c2ccc(C(F)(F)F)cc2)cs1)[C@@H]1CCCN1S(=O)(=O)c1ccc(F)cc1 [compound 37]
16 | 980 | O=C(NCc1nc(-c2ccc(C(F)(F)F)cc2)cs1)[C@@H]1CCCN1S(=O)(=O)c1ccc(Cl)cc1 [compound 38]
17 | 200 | O=C(NCc1nc(-c2ccc(C(F)(F)F)cc2)cs1)[C@@H]1CCCN1S(=O)(=O)c1ccc(Br)s1 [compound 39, (2S)-1-(5-bromothiophene-2-sulfonyl)-N-({4-[4-(trifluoromethyl)phenyl]thiazol-2-yl}methyl)pyrrolidine-2-carboxamide]
18 | 270 | O=C(NCc1nc(-c2ccc(C(F)(F)F)cc2)cs1)[C@@H]1CCCN1S(=O)(=O)c1cc(Br)c(Cl)s1 [compound 40, (2S)-1-(4-bromo-5-chlorothiophene-2-sulfonyl) ({4-[4-{trifluoromethyl)-phenyl]thiazol-2-yl}methyl) pyrrolidine-2-carboxamide]
19 | 1900 | Cc1ccc(S(=O)(=O)N2CCC[C@H]2C(=O)NCc2nc(-c3ccc(C(F)(F)F)cc3)cs2)s1 [compound 41, (2S)-1-(5-methylthiophene-2-sulfonyl)-N-({4-[4-(trifluoro-methyl)phenyl]thiazol-2-yl}-methyl)pyrrolidine-2-carboxamide]
20 | 1490 | O=C(NCc1nc(-c2ccc(C(F)(F)F)cc2)cs1)[C@@H]1CCCN1S(=O)(=O)c1ccc(Br)cc1 [compound 42, (2S)-1-(4-bromobenzene-2-sulfonyl)-N-({4-[4-(trifluoro-methyl)phenyl]thiazol-2-yl)-methyl)pyrrolidine-2-carboxamide]
21 | 2700 | O=C(NCc1nc(-c2ccc(C(F)(F)F)cc2)cs1)[C@@H]1CCCN1S(=O)(=O)c1cccc(Cl)c1 [compound 43]
22 | 570 | O=C(NCc1nc(-c2ccc(C(F)(F)F)cc2)cs1)[C@@H]1CCCN1S(=O)(=O)c1ccc(Cl)nc1 [compound 46, (2S)-1-[(6-chloro-3-pyridyl)-sulfonyl]-N-({4-[4-(trifluoro-methyl)phenyl]thiazol-2-yl}-methyl)pyrrolidine-2-carboxamide]
23 | 990 | O=C(NCc1nc(-c2ccc(C(F)(F)F)cc2)cs1)[C@@H]1CCCN1S(=O)(=O)c1ccco1 [compound 48, (2S)-1-(2-furylsulfonyl)-N-({4-[4-(trifluoromethyl)-phenyl]thiazol-2-yl}methyl)-pyrrolidine-2-carboxamide]
24 | 340 | O=C(NCc1nc(-c2ccc(C(F)(F)F)cc2)cs1)[C@@H]1CCCN1S(=O)(=O)c1ccsc1 [compound 49, (2S)-1-(3-thienylsulfonyl)-N-({4-[4-(trifluoromethyl)-phenyl)thiazol-2-yl}methyl)-pyrrolidine-2-carboxamide]
25 | 100 | O=C(NCc1nc(-c2ccc(C(F)(F)F)cc2)cs1)[C@@H]1CCCN1S(=O)(=O)c1cccc(F)c1 [compound 50, (2S)-1-(3-fluorophenyl) sulfonyl-N-({4-(4-(trifluoro-methyl)phenyl]thiazol-2-yl)-methyl)pyrrolidine-2-carboxamide]
